Laboratory results: PubChem BioAssay (NCI)
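Method: 48-hour compound exposure of cells in 96-well plates, five concentrations, linear interpolation of endpoints. GI50 marks 50% less growth. TGI marks complete inhibition of growth.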

Assays:
Assay in all cases: NCI anticancer screen, dose series, 48 h
[1] = system: 786-0 renal
[2] = system: A498 renal
[3] = system: A549 NSCLC
[4] = system: ACHN renal
[5] = system: BT-549 breast
[6] = system: CAKI-1 renal
[7] = system: CCRF-CEM leukemia
[8] = system: COLO 205 colon
[9] = system: DU-145 prostate
[10] = system: EKVX NSCLC
[11] = system: HCC-2998 colon
[12] = system: HCT-116 colon
[13] = system: HCT-15 colon
[14] = system: HL-60(TB) leukemia
[15] = system: HOP-62 NSCLC
[16] = system: HOP-92 NSCLC
[17] = system: HS 578T breast
[18] = system: HT29 colon
[19] = system: IGROV1 ovarian
[20] = system: K-562 leukemia
[21] = system: KM12 colon
[22] = system: LOX IMVI melanoma
[23] = system: M14 melanoma
[24] = system: MALME-3M melanoma
[25] = system: MCF7 breast
[26] = system: MDA-MB-231 breast
[27] = system: MDA-MB-435
[28] = system: MDA-MB-468 breast
[29] = system: MOLT-4 leukemia
[30] = system: NCI-H226 lung
[31] = system: NCI-H23 lung
[32] = system: NCI-H460 lung
[33] = system: NCI-H522 lung
[34] = system: NCI/ADR-RES ovarian
[35] = system: OVCAR-3 ovarian
[36] = system: OVCAR-4 ovarian
[37] = system: OVCAR-5 ovarian
[38] = system: OVCAR-8 ovarian
[39] = system: PC-3 prostate
[40] = system: RXF 393 renal
[41] = system: SF-268 CNS
[42] = system: SF-295 CNS
[43] = system: SF-539 CNS
[44] = system: SK-MEL-2 melanoma
[45] = system: SK-MEL-28 melanoma
[46] = system: SK-MEL-5 melanoma
[47] = system: SK-OV-3 ovarian
[48] = system: SN12C renal
[49] = system: SNB-19 CNS
[50] = system: SNB-75 CNS
[51] = system: SR leukemia
[52] = system: SW-620 colon
[53] = system: T-47D breast
[54] = system: TK-10 renal
[55] = system: U251 CNS
[56] = system: UACC-257 melanoma
[57] = system: UACC-62 melanoma
[58] = system: UO-31 renal
[59] = system: RPMI-8226 leukemia

In the case of `C=C(C)[C@@H]1CC[C@]2(COP(=O)(OCC)OCC)CC[C@]3(C)[C@H](CC[C@@H]4[C@@](C)(CCCN)[C@H](C(=C)C)CC[C@]43C)[C@@H]12`, the GI50 [1] is reported as 5.04 µM, the TGI [1] is reported as 19.9 µM and the GI50 [2] is reported as 12.5 µM. It also gave a TGI [2] of 25.2 µM, a GI50 [3] of 4.45 µM and a TGI [3] of 18.5 µM. The GI50 [4] was 5.54 µM, the TGI [4] was 18.1 µM and the GI50 [5] was 9.88 µM. The TGI [5] was 22.2 µM, the GI50 [6] was 4.12 µM and the TGI [6] was 17.3 µM. It also gave a GI50 [7] of 2.81 µM, a TGI [7] of 11.3 µM and a GI50 [8] of 4.56 µM. For the same molecule, the TGI [8] was 19.2 µM, the GI50 [9] was 10.9 µM and the TGI [9] was 23.8 µM. The GI50 [10] was 4.88 µM, the TGI [10] was 18.5 µM and the GI50 [11] was 3.7 µM. It also gave a TGI [11] of 15.1 µM, a GI50 [12] of 2.92 µM and a TGI [12] of 13.2 µM. The GI50 [13] was 3.76 µM, the TGI [13] was 13.7 µM and the GI50 [14] was 2.87 µM. The TGI [14] was 9.23 µM, the GI50 [15] was 11.1 µM and the TGI [15] was 24.9 µM. For the same molecule, the GI50 [16] was 2.63 µM, the TGI [16] was 16.2 µM and the GI50 [17] was 4.67 µM. For the same molecule, the TGI [17] was 24.3 µM, the GI50 [18] was 4.03 µM and the TGI [18] was 16.2 µM. For the same molecule, the GI50 [19] was 11.4 µM, the TGI [19] was 23.7 µM and the GI50 [20] was 3.77 µM. For the same molecule, the TGI [20] was > 100 µM, the GI50 [21] was 4.73 µM and the TGI [21] was 17.8 µM. For the same molecule, the GI50 [22] was 4.77 µM, the TGI [22] was 17.2 µM and the GI50 [23] was 5.13 µM. For the same molecule, the TGI [23] was 20.4 µM, the GI50 [24] was 7.16 µM and the TGI [24] was 19.7 µM. For the same molecule, the GI50 [25] was 3.08 µM, the TGI [25] was 12 µM and the GI50 [26] was 7.53 µM. It also gave a TGI [26] of 20.1 µM, a GI50 [27] of 4.07 µM and a TGI [27] of 17.4 µM. The GI50 [28] was 2.56 µM, the TGI [28] was 11.3 µM and the GI50 [29] was 3.27 µM. For the same molecule, the TGI [29] was 16.1 µM, the GI50 [30] was 5.64 µM and the TGI [30] was 22 µM. The GI50 [31] was 4.73 µM, the TGI [31] was 17.8 µM and the GI50 [32] was 3.43 µM. For the same molecule, the TGI [32] was 14.2 µM, the GI50 [33] was 3.01 µM and the TGI [33] was 14.1 µM. For the same molecule, the GI50 [34] was 5.45 µM, the TGI [34] was 21.7 µM and the GI50 [35] was 3 µM. It also gave a TGI [35] of 12.7 µM, a GI50 [36] of 5.35 µM and a TGI [36] of 21.8 µM. For the same molecule, the GI50 [37] was 10.9 µM, the TGI [37] was 22.8 µM and the GI50 [38] was 6.35 µM. The TGI [38] was 23.1 µM, the GI50 [39] was 2.24 µM and the TGI [39] was 11.4 µM. For the same molecule, the GI50 [40] was 3.42 µM, the TGI [40] was 15.2 µM and the GI50 [41] was 6.46 µM. It also gave a TGI [41] of 23.8 µM, a GI50 [42] of 4.43 µM and a TGI [42] of 17.6 µM. It also gave a GI50 [43] of 10.4 µM, a TGI [43] of 22.1 µM and a GI50 [44] of 9.64 µM. The TGI [44] was 22.6 µM, the GI50 [45] was 7.84 µM and the TGI [45] was 20.2 µM. It also gave a GI50 [46] of 3.47 µM, a TGI [46] of 12.9 µM and a GI50 [47] of 13.6 µM. The TGI [47] was 28.7 µM, the GI50 [48] was 4.37 µM and the TGI [48] was 16.6 µM. It also gave a GI50 [49] of 10 µM, a TGI [49] of 21.7 µM and a GI50 [50] of 5.01 µM. For the same molecule, the TGI [50] was 20 µM, the GI50 [51] was 3.66 µM and the TGI [51] was > 100 µM. It also gave a GI50 [52] of 3.49 µM, a TGI [52] of 15.1 µM and a GI50 [53] of 3.23 µM. The TGI [53] was 13.9 µM, the GI50 [54] was 12 µM and the TGI [54] was 25.2 µM. For the same molecule, the GI50 [55] was 6.51 µM, the TGI [55] was 20.7 µM and the GI50 [56] was 5.55 µM. It also gave a TGI [56] of 18.3 µM, a GI50 [57] of 4.45 µM and a TGI [57] of 17.2 µM. The GI50 [58] was 3.58 µM and the TGI [58] was 15.2 µM.

`C#C[C@]1(O)CC[C@H]2[C@@H]3CC=C4c5sc(-c6ccc([N+](=O)[O-])cc6)nc5CC[C@]4(C)[C@H]3CC[C@@]21C` gave a GI50 [1] of 1.84 µM, a TGI [1] of 13.4 µM and a GI50 [2] of 4.04 µM. The TGI [2] was 13.8 µM, the GI50 [3] was 12.5 µM and the TGI [3] was 36.2 µM. The GI50 [4] was 12.2 µM, the TGI [4] was 24.6 µM and the GI50 [5] was 3.76 µM. It also gave a TGI [5] of 16.7 µM, a GI50 [6] of 10.8 µM and a TGI [6] of 22.7 µM. It also gave a GI50 [7] of 4.36 µM, a TGI [7] of 31.9 µM and a GI50 [8] of 14.9 µM. For the same molecule, the TGI [8] was 33.8 µM, the GI50 [9] was 12.8 µM and the TGI [9] was 30.3 µM. For the same molecule, the GI50 [10] was 10.1 µM, the TGI [10] was 23.8 µM and the GI50 [11] was 7.21 µM. For the same molecule, the TGI [11] was 23.1 µM, the GI50 [12] was 10.2 µM and the TGI [12] was 23.3 µM. It also gave a GI50 [13] of 3.99 µM, a TGI [13] of 23.9 µM and a GI50 [14] of 13.5 µM. It also gave a TGI [14] of 42.6 µM, a GI50 [15] of 11.5 µM and a TGI [15] of 30 µM. The GI50 [16] was 22.3 µM, the TGI [16] was 47.4 µM and the GI50 [17] was 2.04 µM. The TGI [17] was 10.3 µM, the GI50 [18] was 11.4 µM and the TGI [18] was 35.2 µM. The GI50 [19] was 10.3 µM, the TGI [19] was 30.9 µM and the GI50 [20] was 3.26 µM. For the same molecule, the TGI [20] was > 100 µM, the GI50 [21] was 17 µM and the TGI [21] was 38.4 µM. It also gave a GI50 [22] of 6.89 µM, a TGI [22] of 33.1 µM and a GI50 [23] of 2.74 µM. For the same molecule, the TGI [23] was 12.2 µM, the GI50 [24] was 3.59 µM and the TGI [24] was 16.5 µM. It also gave a GI50 [25] of 3.07 µM, a TGI [25] of 16.6 µM and a GI50 [26] of 12.3 µM. It also gave a TGI [26] of 27.4 µM, a GI50 [27] of 11.9 µM and a TGI [27] of 25.9 µM. For the same molecule, the GI50 [28] was 12.4 µM, the TGI [28] was 28.9 µM and the GI50 [29] was 2.61 µM. The TGI [29] was 33.1 µM, the GI50 [30] was 18.1 µM and the TGI [30] was 50.2 µM. For the same molecule, the GI50 [31] was 13.8 µM, the TGI [31] was 29.9 µM and the GI50 [32] was 6.19 µM. For the same molecule, the TGI [32] was 25.8 µM, the GI50 [33] was 15.1 µM and the TGI [33] was 38 µM. For the same molecule, the GI50 [34] was 16.4 µM, the TGI [34] was 67.9 µM and the GI50 [35] was 14.9 µM. For the same molecule, the TGI [35] was 31.7 µM, the GI50 [36] was 15.4 µM and the TGI [36] was 43.7 µM. It also gave a GI50 [37] of 12 µM, a TGI [37] of 24.3 µM and a GI50 [38] of 15.3 µM. For the same molecule, the TGI [38] was 38.5 µM, the GI50 [39] was 7.18 µM and the TGI [39] was 95.7 µM. For the same molecule, the GI50 [59] was 0.404 µM, the TGI [59] was 6.27 µM and the GI50 [40] was 0.625 µM. The TGI [40] was 3.18 µM, the GI50 [41] was 12.8 µM and the TGI [41] was 43.6 µM. The GI50 [42] was 0.41 µM, the TGI [42] was 1.8 µM and the GI50 [43] was 0.895 µM. For the same molecule, the TGI [43] was 3.61 µM, the GI50 [44] was 7.18 µM and the TGI [44] was 21.3 µM. It also gave a GI50 [45] of 7.33 µM, a TGI [45] of 20.5 µM and a GI50 [46] of 5.45 µM. For the same molecule, the TGI [46] was 17.9 µM, the GI50 [47] was 12.3 µM and the TGI [47] was 30.6 µM. For the same molecule, the GI50 [48] was 13 µM, the TGI [48] was 26.3 µM and the GI50 [49] was 13.8 µM. The TGI [49] was 29.8 µM, the GI50 [50] was 2.93 µM and the TGI [50] was 18.6 µM. For the same molecule, the GI50 [51] was 2.49 µM, the TGI [51] was > 100 µM and the GI50 [52] was 8.39 µM. For the same molecule, the TGI [52] was 27.2 µM, the GI50 [53] was 7.23 µM and the TGI [53] was 25.2 µM. The GI50 [54] was 13.8 µM, the TGI [54] was 26.7 µM and the GI50 [55] was 2.99 µM. For the same molecule, the TGI [55] was 18.8 µM, the GI50 [56] was 12.1 µM and the TGI [56] was 25 µM. It also gave a GI50 [57] of 14.3 µM, a TGI [57] of 27.4 µM and a GI50 [58] of 5.02 µM. The TGI [58] was 16.2 µM.
